Laboratory results published in PubChem BioAssay (NCI).
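Tested at 5 concentrations; 48 h exposure; 96-well plates; endpoints linearly interpolated, else capped at highest concentration. GI50 marks 50% less growth. The concentration for full growth arrest is given as TGI.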

How the values were obtained:
Experiment in all cases: NCI-60 cell line screen, 48 h
[1] = tested on: SK-MEL-5 melanoma
[2] = tested on: CCRF-CEM leukemia
[3] = tested on: HT29 colon
[4] = tested on: SNB-19 CNS
[5] = tested on: COLO 205 colon
[6] = tested on: MALME-3M melanoma
[7] = tested on: SK-MEL-28 melanoma
[8] = tested on: HS 578T breast
[9] = tested on: NCI/ADR-RES ovarian
[10] = tested on: T-47D breast
[11] = tested on: SK-OV-3 ovarian
[12] = tested on: HL-60(TB) leukemia
[13] = tested on: DU-145 prostate
[14] = tested on: 786-0 renal
[15] = tested on: BT-549 breast
[16] = tested on: OVCAR-8 ovarian
[17] = tested on: MDA-MB-231 breast
[18] = tested on: EKVX NSCLC
[19] = tested on: RPMI-8226 leukemia
[20] = tested on: HOP-92 NSCLC
[21] = tested on: A498 renal
[22] = tested on: SF-268 CNS
[23] = tested on: HCT-116 colon
[24] = tested on: HOP-62 NSCLC
[25] = tested on: NCI-H226 lung
[26] = tested on: NCI-H522 lung
[27] = tested on: UACC-257 melanoma
[28] = tested on: NCI-H460 lung

Q: For `COc1ccc2c(c1)c(-c1cc(N)n3nc(-c4cn(C)c5ccc(OC)cc45)cc3n1)cn2C`, which GI50 [1] is on record?
A: Its GI50 is 1.79 µM.

Q: And the TGI [1]?
A: Its TGI is 3.25 µM.

Q: What about the GI50 [2] of the same compound?
A: Its GI50 is 0.436 µM.

Q: What about the TGI [2] of the same compound?
A: Its TGI is 7.46 µM.

Q: What about the GI50 [3] of the same compound?
A: The GI50 was 1.73 µM.

Q: And the TGI [3]?
A: Its TGI is 3.14 µM.

Q: What about the GI50 [4] of the same compound?
A: Its GI50 is 2.5 µM.

Q: What about the TGI [4] of the same compound?
A: Its TGI is 6.69 µM.

Q: And the GI50 [5]?
A: The GI50 was 1.7 µM.

Q: What about the TGI [5] of the same compound?
A: Its TGI is 3.19 µM.

Q: And the GI50 [6]?
A: The GI50 was 1.87 µM.

Q: What about the TGI [6] of the same compound?
A: The TGI was 3.65 µM.

Q: And the GI50 [7]?
A: The GI50 was 1.85 µM.

Q: What about the TGI [7] of the same compound?
A: Its TGI is 3.46 µM.

Q: And the GI50 [8]?
A: The GI50 was 2.57 µM.

Q: What about the TGI [8] of the same compound?
A: The TGI was 6.67 µM.

Q: And the GI50 [9]?
A: The GI50 was 2.07 µM.

Q: And the TGI [9]?
A: Its TGI is 4.52 µM.

Q: And the GI50 [10]?
A: The GI50 was 1.7 µM.

Q: And the TGI [10]?
A: Its TGI is 3.5 µM.

Q: And the GI50 [11]?
A: The GI50 was 2.14 µM.

Q: And the TGI [11]?
A: The TGI was 4.31 µM.

Q: And the GI50 [12]?
A: Its GI50 is 1.31 µM.

Q: And the TGI [12]?
A: The TGI was 3.98 µM.

Q: What about the GI50 [13] of the same compound?
A: Its GI50 is 1.8 µM.

Q: And the TGI [13]?
A: The TGI was 3.19 µM.

Q: What about the GI50 [14] of the same compound?
A: The GI50 was 1.64 µM.

Q: What about the TGI [14] of the same compound?
A: Its TGI is 3.41 µM.

Q: What about the GI50 [15] of the same compound?
A: Its GI50 is 3.23 µM.

Q: What about the TGI [15] of the same compound?
A: Its TGI is 12 µM.

Q: And the GI50 [16]?
A: Its GI50 is 1.75 µM.

Q: What about the TGI [16] of the same compound?
A: The TGI was 3.29 µM.

Q: What about the GI50 [17] of the same compound?
A: Its GI50 is 1.84 µM.

Q: What about the TGI [17] of the same compound?
A: Its TGI is 3.49 µM.

Q: And the GI50 [18]?
A: Its GI50 is 1.84 µM.

Q: What about the TGI [18] of the same compound?
A: The TGI was 3.67 µM.

Q: What about the GI50 [19] of the same compound?
A: The GI50 was 1.78 µM.

Q: What about the TGI [19] of the same compound?
A: The TGI was 6.15 µM.

Q: What about the GI50 [20] of the same compound?
A: Its GI50 is 1.88 µM.

Q: What about the TGI [20] of the same compound?
A: The TGI was 4.25 µM.

Q: And the GI50 [21]?
A: Its GI50 is 1.84 µM.

Q: And the TGI [21]?
A: The TGI was 3.68 µM.

Q: What about the GI50 [22] of the same compound?
A: The GI50 was 2.03 µM.

Q: And the TGI [22]?
A: The TGI was 4.4 µM.

Q: And the GI50 [23]?
A: The GI50 was 1.5 µM.

Q: And the TGI [23]?
A: The TGI was 3.1 µM.

Q: What about the GI50 [24] of the same compound?
A: The GI50 was 1.81 µM.

Q: And the TGI [24]?
A: Its TGI is 3.67 µM.

Q: And the GI50 [25]?
A: The GI50 was 2.06 µM.

Q: And the TGI [25]?
A: The TGI was 4.25 µM.

Q: And the GI50 [26]?
A: The GI50 was 1.74 µM.

Q: And the TGI [26]?
A: The TGI was 3.41 µM.

Q: And the GI50 [27]?
A: Its GI50 is 1.78 µM.

Q: What about the TGI [27] of the same compound?
A: The TGI was 3.63 µM.

Q: What about the GI50 [28] of the same compound?
A: The GI50 was 1.79 µM.

Q: What about the TGI [28] of the same compound?
A: Its TGI is 3.52 µM.
